This is an account of results in PubChem BioAssay (NCI).

Among the test systems are CCRF-CEM leukemia; MOLT-4 leukemia; NCI-H23 lung; NCI-H460 lung; SF-268 CNS; SNB-19 CNS; SW-620 colon; COLO 205 colon; DU-145 prostate; NCI/ADR-RES ovarian.
Common to all, as to test: NCI-60 cell line screen, 48 h

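Test compounds were applied to cells in 96-well plates for 48 hours at 5 doses. The concentration for 50% growth inhibition is given as GI50. TGI marks complete inhibition of growth.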

Take `COC(=O)/C(=C/c1ccc(OC)cc1)NC(=O)c1ccccc1`: the TGI with CCRF-CEM leukemia, in the experiment on MOLT-4 leukemia, in the experiment on NCI-H23 lung, in the experiment with NCI-H460 lung, in the experiment on SF-268 CNS and in the experiment on SNB-19 CNS was > 100 µM each time. Also, the TGI in the experiment with SW-620 colon was > 100 µM.

In the case of `CCCCN(CCCC)C(=O)C(=O)C(C)C(=O)CC` (stereo unspecified), the TGI in the experiment with COLO 205 colon, in the experiment with MOLT-4 leukemia, in the experiment on NCI-H23 lung, with NCI-H460 lung, with SF-268 CNS and in the experiment with SNB-19 CNS was > 100 µM throughout. For the same compound, the TGI in the experiment on SW-620 colon is > 100 µM.

`O=[N+]([O-])[O-].O=[N+]([O-])[O-].[Au].[Au].c1ccc([P-]c2ccccc2)cc1.c1ccc([P-]c2ccccc2)cc1`: the GI50 in the experiment with CCRF-CEM leukemia is 18.8 µM; with COLO 205 colon, 28 µM; in the experiment on NCI-H23 lung, 36 µM; in the experiment with NCI-H460 lung it was 20.4 µM; in the experiment with SF-268 CNS, 65.1 µM; with SNB-19 CNS, > 100 µM. In the experiment with SW-620 colon, the GI50 was 38.7 µM. Moreover, the TGI with CCRF-CEM leukemia, with COLO 205 colon, in the experiment on NCI-H23 lung, in the experiment with NCI-H460 lung, in the experiment with SF-268 CNS and in the experiment on SNB-19 CNS was > 100 µM each time. Also, in the experiment on SW-620 colon, the TGI was > 100 µM.

Take `OCC#Cc1ccccc1C#Cc1ccc(C#Cc2ccccc2C#CCO)s1`: the GI50 in the experiment on COLO 205 colon was 17.9 µM; in the experiment with DU-145 prostate, 14.9 µM; in the experiment on NCI-H23 lung, 18.3 µM; in the experiment with NCI-H460 lung, 24.7 µM; in the experiment with NCI/ADR-RES ovarian it was 21.1 µM; in the experiment on SF-268 CNS it was 20.6 µM. The GI50 in the experiment on SNB-19 CNS was 22.1 µM; in the experiment with SW-620 colon it was 18.4 µM. Besides, the TGI in the experiment with COLO 205 colon is 48.5 µM; with DU-145 prostate, 28.1 µM; with NCI-H23 lung, 33.4 µM; in the experiment with NCI-H460 lung it was 91.5 µM; with NCI/ADR-RES ovarian, 36 µM; in the experiment with SF-268 CNS, 44.5 µM. Moreover, the TGI in the experiment with SNB-19 CNS turned out to be 42.7 µM; in the experiment on SW-620 colon it was 37.3 µM.

As to `CCCCCCNc1nc(N2CCOCC2)c2[nH]c(NCCCCCC)nc2n1`, the GI50 was 1.89 µM in the experiment on COLO 205 colon; 1.51 µM in the experiment on DU-145 prostate; 1.35 µM in the experiment with NCI-H23 lung; 1.55 µM with NCI-H460 lung; 1.59 µM in the experiment on NCI/ADR-RES ovarian; 1.78 µM in the experiment on SF-268 CNS. Further, the GI50 is 1.8 µM in the experiment with SNB-19 CNS and 1.44 µM in the experiment on SW-620 colon. Also, the TGI in the experiment with COLO 205 colon was determined as 3.6 µM; in the experiment on DU-145 prostate, 2.83 µM; in the experiment on NCI-H23 lung, 2.63 µM; with NCI-H460 lung it was 2.97 µM; with NCI/ADR-RES ovarian it was 2.97 µM; in the experiment with SF-268 CNS, 3.44 µM. In addition, the TGI in the experiment on SNB-19 CNS came to 3.41 µM; in the experiment with SW-620 colon, 2.76 µM.

With `c1cc(-c2cn[nH]c2)cc(-c2cn[nH]c2)c1`, the TGI with CCRF-CEM leukemia, in the experiment with COLO 205 colon, with MOLT-4 leukemia, in the experiment on NCI-H23 lung, in the experiment with NCI-H460 lung and in the experiment with SF-268 CNS was > 100 µM in each case. Further, the TGI in the experiment on SNB-19 CNS and in the experiment with SW-620 colon was > 100 µM each time.

For `CC(=O)[C-](C(C)=O)c1ccccc1.CC(=O)[C-](C(C)=O)c1ccccc1.CC[O-].CC[O-].[Ti+4]`, the GI50 in the experiment with COLO 205 colon, with MOLT-4 leukemia, in the experiment with NCI-H23 lung, in the experiment on SF-268 CNS, with SNB-19 CNS and in the experiment on SW-620 colon was > 100 µM in each case. Moreover, the TGI with COLO 205 colon, with MOLT-4 leukemia, in the experiment on NCI-H23 lung, in the experiment on SF-268 CNS, in the experiment with SNB-19 CNS and in the experiment on SW-620 colon was > 100 µM in each case.

As for `COc1ccc(C(=O)C(C(=O)C(=O)Nc2nccs2)c2ccc(OC)cc2)cc1` (stereo unspecified), the TGI in the experiment on CCRF-CEM leukemia, in the experiment on COLO 205 colon, in the experiment on MOLT-4 leukemia, in the experiment with NCI-H23 lung, in the experiment with NCI-H460 lung and in the experiment on SF-268 CNS was > 100 µM each time. Further, the TGI in the experiment on SNB-19 CNS and in the experiment with SW-620 colon was > 100 µM in each case.

For `c1ccc2cc(Cn3c[n+](Cc4ccc5ccccc5c4)c4ccccc43)ccc2c1`, the GI50 is 1.51 µM in the experiment with DU-145 prostate, 16.6 µM in the experiment with NCI/ADR-RES ovarian, 1.31 µM in the experiment on SF-268 CNS and 1.27 µM in the experiment on SW-620 colon. For the same compound, the TGI came to 2.88 µM in the experiment on DU-145 prostate, 61.8 µM in the experiment on NCI/ADR-RES ovarian, 2.72 µM in the experiment with SF-268 CNS and 2.75 µM in the experiment with SW-620 colon.

Take `C#C[C@H](CCCC)OC(=O)N[C@H](C)c1ccccc1`: the TGI was > 100 µM in the experiment on CCRF-CEM leukemia; 48.7 µM in the experiment with COLO 205 colon; 94.8 µM with MOLT-4 leukemia; > 100 µM in the experiment on NCI-H460 lung; > 100 µM in the experiment on SF-268 CNS; > 100 µM in the experiment with SNB-19 CNS. In addition, in the experiment on SW-620 colon, the TGI is > 100 µM.

For the compound `O=C(O)/C(=C\c1ccccc1Cl)S(=O)(=O)c1ccccc1`, the TGI with CCRF-CEM leukemia, in the experiment with COLO 205 colon, in the experiment with MOLT-4 leukemia, in the experiment on NCI-H460 lung, in the experiment with SF-268 CNS and in the experiment on SNB-19 CNS was > 100 µM throughout. Besides, in the experiment with SW-620 colon, the TGI is > 100 µM.

For the compound `N[C@@H]1CCCC[C@@H]1N.O=C([O-])CN(CP(=O)([O-])[O-])CP(=O)([O-])[O-].[Pt+2]`, the GI50 was 29 µM with CCRF-CEM leukemia; 50.1 µM with COLO 205 colon; 82.5 µM in the experiment with MOLT-4 leukemia; > 100 µM with NCI-H23 lung; > 100 µM in the experiment on NCI-H460 lung; > 100 µM in the experiment on SF-268 CNS. Besides, the GI50 in the experiment on SNB-19 CNS and in the experiment with SW-620 colon was > 100 µM each time. The TGI with CCRF-CEM leukemia was 93.4 µM; with COLO 205 colon, > 100 µM; with MOLT-4 leukemia, > 100 µM; in the experiment on NCI-H23 lung, > 100 µM; in the experiment with NCI-H460 lung, > 100 µM; with SF-268 CNS, > 100 µM. The TGI with SNB-19 CNS and in the experiment with SW-620 colon was > 100 µM in each case.
